From patent publication US8680339B2, “Herbicides” (Syngenta Limited, priority 2009, dated 2014) come the findings set out here.

Format in all cases: in vivo
Test [1] has as its system Echinochloa crus-galli (ECHCG). The test is described as follows: Pre-emergence herbicidal activity, glasshouse pot test. The settings on record: Echinochloa crus-galli, 312 h, rate 250 g/ha, evaluated after 13 days, 100=total damage to plant, 0=no damage to plant. As for the experimental part: (§1) Seeds of a variety of test species were sown in standard soil in pots. After cultivation for one day (pre-emergence) or after 8 days cultivation (post-emergence) under controlled conditions in a glasshouse (at 24/16° C., day/night; 14 hours light; 65% humidity), the plants were sprayed with an aqueous spray solution derived from the formulation of the technical active ingredient in acetone/water (50:50) solution containing 0.5% Tween 20 (polyoxyethelyene sorbitan monolaurate, CAS RN 9005-64-5). The test plants were then grown in a glasshouse under controlled conditions in a glasshouse (at 24/16° C., day/night; 14 hours light; 65% humidity) and watered twice daily. After 13 days for pre and post-emergence, the test was evaluated (100=total damage to plant; 0=no damage to plant). Test Plants: Lolium perenne (LOLPE), Alopecurus myosuroides (ALOMY), Echinochloa crus-galli (ECHCG), and Avena fatua (AVEFA). Pre-Emergence Activity

Test [2] concerns Lolium perenne (LOLPE). The description is as above. As to conditions: Lolium perenne, 312 h, rate 250 g/ha, evaluated after 13 days, 100=total damage to plant, 0=no damage to plant. The protocol:
as §1

Test [3] has as its system Alopecurus myosuroides (ALOMY). The description is as above. The settings on record: Alopecurus myosuroides, 312 h, rate 250 g/ha, evaluated after 13 days, 100=total damage to plant, 0=no damage to plant. As for the experimental part:
as §1

Test [4] deals with Avena fatua (AVEFA). The description is as above. As to conditions: Avena fatua, 312 h, rate 250 g/ha, evaluated after 13 days, 100=total damage to plant, 0=no damage to plant. As for the experimental part: as §1
In test [5] the test system is Echinochloa crus-galli (ECHCG). The test is described as follows: Post-emergence herbicidal activity, glasshouse pot test. As to conditions: Echinochloa crus-galli, 312 h, rate 250 g/ha, evaluated after 13 days, 100=total damage to plant, 0=no damage to plant. As for the experimental part:
as §1, with “Post-Emergence” for “Pre-Emergence”

The test system of test [6] is Lolium perenne (LOLPE). Described as above. As to conditions: Lolium perenne, 312 h, rate 250 g/ha, evaluated after 13 days, 100=total damage to plant, 0=no damage to plant. The protocol: as §1, with “Post-Emergence” for “Pre-Emergence”
The test system of test [7] is Alopecurus myosuroides (ALOMY). The description is as above. The settings on record: Alopecurus myosuroides, 312 h, rate 250 g/ha, evaluated after 13 days, 100=total damage to plant, 0=no damage to plant. As for the experimental part: as §1, with “Post-Emergence” for “Pre-Emergence”
Test [8] relates to Avena fatua (AVEFA). The description is as above. The settings on record: Avena fatua, 312 h, rate 250 g/ha, evaluated after 13 days, 100=total damage to plant, 0=no damage to plant. The protocol:
as §1, with “Post-Emergence” for “Pre-Emergence”

On to `Cc1cc(Oc2ccc3cc(Cl)ccc3n2)cc(C)c1C1=C(O)CC(CC2CCOCC2)C1=O` (centres unmarked) [Compound A-37, 2-[4-(6-chloroquinolin-2-yloxy)-2,6-dimethylphenyl]-4-(tetrahydropyran-4-ylmethyl)cyclopentane-1,3-dione], for which the pest or weed control at 250 g/ha in test [1] stood at 90%; in test [2], 0%; in test [3], 10%; in test [4], 10%; in test [5], 80%; in test [6], 40%. For the same compound, the pest or weed control at 250 g/ha in test [7] came to 50%; in test [8], 60%.
As for `CCc1cc(Oc2ccc3cc(Cl)ccc3n2)ccc1C1=C(O)[C@H]2[C@@H](C1=O)[C@@H]1CC[C@H]2O1` [Compound A-38], the pest or weed control at 250 g/ha in test [1] came out at 100%; in test [2] it was 70%; in test [3] it was 80%; in test [4], 0%; in test [5], 100%; in test [6] it was 80%. For the same compound, the pest or weed control at 250 g/ha stood at 90% in test [7] and 80% in test [8].
For `Cc1cc(Oc2ccc(Cl)cc2)cc(C)c1C1=C(OC(=O)C(C)(C)C)[C@H]2[C@@H](C1=O)[C@@H]1CC[C@H]2O1` [Compound P-3], the pest or weed control at 250 g/ha in test [1] was found to be 100%; in test [2] it was 90%; in test [3], 100%; in test [4] it was 90%; in test [5], 100%; in test [6], 100%. For the same compound, the pest or weed control at 250 g/ha is 90% in test [7] and 100% in test [8].
Consider `Cc1cc(Oc2ccc(F)cc2)cc(C)c1C1=C(OC(=O)C(C)(C)C)[C@H]2[C@@H](C1=O)[C@@H]1CC[C@H]2O1` [Compound P-4], for which the pest or weed control at 250 g/ha was 100% in test [1]; 90% in test [2]; 80% in test [3]; 70% in test [4]; 90% in test [5]; 70% in test [6]. For the same compound, the figures for the pest or weed control at 250 g/ha in test [7] and in test [8] were 90% and 60%, respectively.

In general, pest or weed control refers to how far the test organism was held down. A lower pest or weed control goes with a weak effect.
